Four compounds from ChEMBL document CHEMBL3045232, “Inhibition of photophosphorylation and electron transport chain in thylakoids by lasiodiplodin, a natural product from Botryosphaeria rhodina” (J Agric Food Chem, 2007) can be followed below.

pIC50: −log10 of the molar value. Activity calls are given as the source filed them. No cut-off for these calls is given here.

As usually defined, the residual activity is what remains of the control signal, in per cent. The term inhibition denotes how much of the control response was suppressed.

Test [1] concerns Spinacia oleracea. The test can be described thus: Induction of Chlorophyll a fluorescence induction curve in freshly lysed chloroplasts of Spinacia oleracea (spinach) at 10 uM. Type of test: functional, organism-based.
The target in test [2] is T1, Chloroplast coupling factor 1 (Spinacia oleracea) (UniProt P00825+P06453+P69447+P06451+P05435+P31853+P06450+P11402+P00833). The test can be described thus: Inhibition of Mg2+ ATPase activity of coupling factor 1 in chloroplasts of Spinacia oleracea (spinach) leaves at 150 uM. Type of test: protein-complex assay. The settings on record: values are per cent of control.

Test [3] deals with Spinacia oleracea. The test is described as follows: Induction of Chlorophyll a fluorescence induction curve in freshly lysed chloroplasts of Spinacia oleracea (spinach) at 300 uM. Type of test: functional, organism-based.
Test [4] addresses T1, Chloroplast coupling factor 1 (Spinacia oleracea). The test can be described thus: Inhibition of Mg2+ ATPase activity of coupling factor 1 in chloroplasts of Spinacia oleracea (spinach) leaves at 50 uM. Type of test: protein-complex assay. The settings on record: values are per cent of control.
Test [5] has the same target. The test is described as follows: Inhibition of Mg2+ ATPase activity of coupling factor 1 in chloroplasts of Spinacia oleracea leaves at 25 uM. Type of test: protein-complex assay. The note with it: values are per cent of control.
For test [6] the target is unchanged. The test can be described thus: Inhibition of Ca2+ ATPase activity of coupling factor 1 in chloroplasts of Spinacia oleracea (spinach) leaves at 50 uM. Type of test: protein-complex assay.
The target is the same in test [7]. The test is described as follows: Inhibition of Ca2+ ATPase activity of coupling factor 1 in chloroplasts of Spinacia oleracea (spinach) leaves at 150 uM. Type of test: protein-complex assay.
The target is the same in test [8]. The test is described as follows: Inhibition of Ca2+ ATPase activity of coupling factor 1 in chloroplasts of Spinacia oleracea (spinach) leaves at 25 uM. Type of test: protein-complex assay.
For test [9] the target is unchanged. The test is described as follows: Inhibition of H+ ATPase activity of coupling factor 1 in chloroplasts of Spinacia oleracea (spinach) leaves at 200 uM. Type of test: protein-complex assay.
The target is the same in test [10]. The test can be described thus: Inhibition of H+ ATPase activity of coupling factor 1 in chloroplasts of Spinacia oleracea (spinach) leaves at 50 uM. Type of test: protein-complex assay.
For test [11] the target is unchanged. The test is described as follows: Inhibition of H+ ATPase activity of coupling factor 1 in chloroplasts of Spinacia oleracea (spinach) leaves at 150 uM. Type of test: protein-complex assay.
Test [12] has as its system Spinacia oleracea. The test is described as follows: Inhibition of thylakoid electron transport chain in intact chloroplasts of Spinacia oleracea (spinach) leaves assessed as inhibition of uncoupled PS2 electron transport from […] to DCPIP at 300 uM relative to control. The note with it: values are per cent of control.
Test [13] deals with Spinacia oleracea. The test is described as follows: Inhibition of thylakoid electron transport chain in intact chloroplasts of Spinacia oleracea (spinach) leaves assessed as inhibition of uncoupled PS2 electron transport from […] to DCPIP at 200 uM relative to control. The note with it: values are per cent of control.
The test system of test [14] is Spinacia oleracea. The test is described as follows: Inhibition of thylakoid electron transport chain in intact chloroplasts of Spinacia oleracea (spinach) leaves assessed as inhibition of uncoupled PS2 electron transport from […] to DCPIP at 100 uM relative to control. The settings on record: values are per cent of control.
Test [15] deals with Spinacia oleracea. The test can be described thus: Inhibition of thylakoid electron transport chain in intact chloroplasts of Spinacia oleracea (spinach) leaves assessed as inhibition of uncoupled PS2 electron transport from water to SiM at 400 uM relative to control. The settings on record: values are per cent of control.
The test system of test [16] is Spinacia oleracea. The test is described as follows: Inhibition of thylakoid electron transport chain in intact chloroplasts of Spinacia oleracea (spinach) leaves assessed as inhibition of uncoupled PS2 electron transport from water to SiM at 300 uM relative to control. The note with it: values are per cent of control.
The subject of test [17] is Spinacia oleracea. The test is described as follows: Inhibition of thylakoid electron transport chain in intact chloroplasts of Spinacia oleracea (spinach) leaves assessed as inhibition of uncoupled PS2 electron transport from water to SiM at 200 uM relative to control. The note with it: values are per cent of control.
Test [18] relates to Spinacia oleracea. The test is described as follows: Inhibition of thylakoid electron transport chain in intact chloroplasts of Spinacia oleracea (spinach) leaves assessed as inhibition of uncoupled PS2 electron transport from water to SiM at 100 uM relative to control. The settings on record: values are per cent of control.
Test [19] has as its system Spinacia oleracea. The test is described as follows: Inhibition of ATP sythesis in freshly lysed Spinacia oleracea (spinach) chloroplasts at 150 uM. Type of test: functional, organism-based.
Test [20] has as its system Spinacia oleracea. The test can be described thus: In vitro inhibition of photophosphorylation in intact chloroplasts of Spinacia oleracea (spinach) leaves assessed as inhibition of uncoupled electron transport from water to methylviologen at 300 uM. Type of test: functional.
The subject of test [21] is Spinacia oleracea. The test can be described thus: In vitro inhibition of photophosphorylation in intact chloroplasts of Spinacia oleracea (spinach) leaves assessed as phosphorylating nonyclic electron transport from water to methylviologen. Type of test: functional.
For test [22], the system named is Spinacia oleracea. The test is described as follows: Inhibition of ATP sythesis in freshly lysed Spinacia oleracea (spinach) chloroplasts. Type of test: functional, organism-based.
The subject of test [23] is Spinacia oleracea. The test can be described thus: In vitro inhibition of photophosphorylation in intact chloroplasts of Spinacia oleracea (spinach) leaves assessed as basal electron transport from water to methylviologen. Type of test: functional.

On to `COc1cc(O)cc2c1C(=O)O[C@@H](C)CCCCCCC2` [LASIODIPLODIN], for which the outcome in the test on Spinacia oleracea [1] and in the test with Spinacia oleracea [3] was Active. Also, the residual activity is 49.4% in test [2]; 54.5% in test [4]; 62.3% in test [5]; 27% in the test with Spinacia oleracea [12]; 75% in the test on Spinacia oleracea [13]; 87% in the test with Spinacia oleracea [14]. The residual activity in the test with Spinacia oleracea [15] stood at 0%; with Spinacia oleracea [16] it was 40%; in the test with Spinacia oleracea [17] it was 70%; in the test with Spinacia oleracea [18], 80%. Besides, the inhibition in test [6] was 87.5%; in test [7], 84.1%; in test [8], 95.6%; in test [9], 97.7%; in test [10], 95%; in test [11], 98.5%. Besides, the inhibition in the test on Spinacia oleracea [19] and with Spinacia oleracea [20] was 100% in each case. The inhibition result with Spinacia oleracea [21] and in the test with Spinacia oleracea [23] was “Active” each time. Moreover, the pIC50 in the test on Spinacia oleracea [22] (read-out: I50) was 4.45.

As for `CC(C)[C@@H](C)/C=C/[C@@H](C)[C@H]1CC[C@H]2C3=CC=C4C[C@@H](O)CC[C@]4(C)[C@H]3CC[C@]12C`, the I50 result with Spinacia oleracea [22] is “inactive”.

On to `O=c1[nH]cnc2c1ncn2[C@@H]1O[C@H](CO)[C@@H](O)[C@H]1O`, for which the I50 entry with Spinacia oleracea [22] is “inactive”.

Turning to `OCCc1ccc(O)cc1`, the I50 result with Spinacia oleracea [22] was “inactive”.
